Where two headings read alike, the source gives them in different places.
Experiments:
[1] = target: T1, M1 (muscarinic acetylcholine receptor M1) (Homo sapiens, UniProt P11229); assay: SafetyScreen44: M1; format: binding
T1 construct: purchased Eurofins Cerep SafetyScreen44
T1 sequence (P11229 1-460): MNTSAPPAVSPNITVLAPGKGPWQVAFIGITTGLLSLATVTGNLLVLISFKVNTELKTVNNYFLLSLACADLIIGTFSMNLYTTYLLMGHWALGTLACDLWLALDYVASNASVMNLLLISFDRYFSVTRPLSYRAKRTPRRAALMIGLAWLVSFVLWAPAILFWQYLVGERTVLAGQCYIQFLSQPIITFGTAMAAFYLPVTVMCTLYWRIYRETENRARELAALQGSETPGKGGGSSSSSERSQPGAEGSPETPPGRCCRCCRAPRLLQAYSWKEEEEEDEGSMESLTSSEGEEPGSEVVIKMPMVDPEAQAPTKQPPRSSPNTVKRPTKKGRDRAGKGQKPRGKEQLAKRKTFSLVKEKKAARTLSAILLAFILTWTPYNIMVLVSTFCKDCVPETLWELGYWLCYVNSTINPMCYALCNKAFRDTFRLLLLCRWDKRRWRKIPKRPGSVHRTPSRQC

[2] = target: T2, D2S (short dopamine D2 receptor) (Homo sapiens, UniProt P14416); assay: SafetyScreen44: D2S; format: binding
T2 construct: purchased Eurofins Cerep SafetyScreen44
T2 sequence (P14416 1-414 isoform P14416-2): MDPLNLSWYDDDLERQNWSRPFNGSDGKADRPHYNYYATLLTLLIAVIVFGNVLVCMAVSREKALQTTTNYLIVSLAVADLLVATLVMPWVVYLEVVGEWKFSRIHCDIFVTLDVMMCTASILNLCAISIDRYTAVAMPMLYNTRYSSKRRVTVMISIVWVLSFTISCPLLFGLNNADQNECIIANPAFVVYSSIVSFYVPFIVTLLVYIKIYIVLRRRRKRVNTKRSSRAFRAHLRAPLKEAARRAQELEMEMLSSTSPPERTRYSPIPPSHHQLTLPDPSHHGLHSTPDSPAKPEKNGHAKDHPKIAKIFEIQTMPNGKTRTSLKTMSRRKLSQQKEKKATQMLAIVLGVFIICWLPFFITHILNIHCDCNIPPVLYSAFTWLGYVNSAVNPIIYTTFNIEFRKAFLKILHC

COX1 = target: T3, COX1 (Homo sapiens, UniProt P23219); assay: SafetyScreen44: COX1; format: biochemical
T3 construct: purchased Eurofins Cerep SafetyScreen44
T3 sequence (P23219 24-599): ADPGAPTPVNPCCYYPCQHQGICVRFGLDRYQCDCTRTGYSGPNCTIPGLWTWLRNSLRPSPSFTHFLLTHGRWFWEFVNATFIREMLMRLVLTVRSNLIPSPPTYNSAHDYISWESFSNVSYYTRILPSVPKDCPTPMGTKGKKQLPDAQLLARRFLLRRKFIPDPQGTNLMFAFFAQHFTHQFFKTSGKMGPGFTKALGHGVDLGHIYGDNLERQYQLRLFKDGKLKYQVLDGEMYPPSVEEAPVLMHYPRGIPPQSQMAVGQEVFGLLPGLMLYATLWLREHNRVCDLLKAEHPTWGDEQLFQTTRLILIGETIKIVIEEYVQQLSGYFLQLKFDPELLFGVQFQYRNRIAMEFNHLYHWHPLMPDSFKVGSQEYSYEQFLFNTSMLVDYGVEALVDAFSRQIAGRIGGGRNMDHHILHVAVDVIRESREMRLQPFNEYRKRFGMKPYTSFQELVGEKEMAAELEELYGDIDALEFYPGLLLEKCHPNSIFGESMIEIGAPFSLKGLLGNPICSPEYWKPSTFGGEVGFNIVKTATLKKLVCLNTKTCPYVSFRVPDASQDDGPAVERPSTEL

[3] = target: T4, CB2 (cannabinoid receptor type 2) (Homo sapiens, UniProt P34972); assay: SafetyScreen44: CB2; format: binding
T4 construct: purchased Eurofins Cerep SafetyScreen44
T4 sequence (P34972 whole entry): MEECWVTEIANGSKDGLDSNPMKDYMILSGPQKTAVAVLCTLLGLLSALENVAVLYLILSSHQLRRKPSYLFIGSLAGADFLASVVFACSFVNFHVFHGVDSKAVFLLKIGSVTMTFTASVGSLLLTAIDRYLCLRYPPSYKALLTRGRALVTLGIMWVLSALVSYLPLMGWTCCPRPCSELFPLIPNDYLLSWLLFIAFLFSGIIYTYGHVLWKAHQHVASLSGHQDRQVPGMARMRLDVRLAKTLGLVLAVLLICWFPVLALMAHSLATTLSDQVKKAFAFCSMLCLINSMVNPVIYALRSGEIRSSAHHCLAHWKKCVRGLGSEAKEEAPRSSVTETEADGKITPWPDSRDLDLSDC

[4] = target: T5, PDE3A (phosphodiesterase 3A) (Homo sapiens, UniProt Q14432); assay: SafetyScreen44: PDE3A; format: biochemical
T5 construct: purchased Eurofins Cerep SafetyScreen44
T5 sequence (Q14432 whole entry): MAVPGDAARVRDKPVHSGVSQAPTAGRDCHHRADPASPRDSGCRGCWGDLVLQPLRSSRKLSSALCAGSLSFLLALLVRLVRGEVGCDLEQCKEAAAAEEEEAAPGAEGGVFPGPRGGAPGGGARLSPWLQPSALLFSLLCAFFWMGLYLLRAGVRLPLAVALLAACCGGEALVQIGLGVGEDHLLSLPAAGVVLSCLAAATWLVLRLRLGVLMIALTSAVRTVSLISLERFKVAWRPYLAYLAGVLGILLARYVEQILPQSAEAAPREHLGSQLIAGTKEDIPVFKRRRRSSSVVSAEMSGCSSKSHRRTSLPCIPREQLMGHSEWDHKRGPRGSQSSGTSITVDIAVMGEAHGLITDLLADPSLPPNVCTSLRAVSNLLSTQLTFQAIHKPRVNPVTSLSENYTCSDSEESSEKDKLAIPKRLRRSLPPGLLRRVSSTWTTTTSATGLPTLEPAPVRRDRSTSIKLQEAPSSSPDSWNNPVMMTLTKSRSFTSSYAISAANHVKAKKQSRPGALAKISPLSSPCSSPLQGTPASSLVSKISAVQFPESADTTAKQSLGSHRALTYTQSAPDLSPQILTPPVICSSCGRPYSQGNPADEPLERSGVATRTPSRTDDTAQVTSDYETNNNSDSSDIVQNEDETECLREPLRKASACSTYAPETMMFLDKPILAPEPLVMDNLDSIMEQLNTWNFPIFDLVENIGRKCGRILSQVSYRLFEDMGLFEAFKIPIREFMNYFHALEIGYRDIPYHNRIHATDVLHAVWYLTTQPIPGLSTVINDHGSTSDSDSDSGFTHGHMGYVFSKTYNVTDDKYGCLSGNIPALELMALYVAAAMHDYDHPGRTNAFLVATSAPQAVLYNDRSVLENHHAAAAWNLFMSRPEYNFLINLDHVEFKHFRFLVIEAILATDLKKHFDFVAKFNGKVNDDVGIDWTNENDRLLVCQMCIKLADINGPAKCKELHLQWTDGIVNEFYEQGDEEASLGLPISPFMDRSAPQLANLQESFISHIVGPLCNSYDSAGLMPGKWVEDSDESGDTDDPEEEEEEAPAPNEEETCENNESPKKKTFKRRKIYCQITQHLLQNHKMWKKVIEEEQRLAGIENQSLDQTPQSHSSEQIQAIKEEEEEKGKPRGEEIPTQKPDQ

[5] = target: T6, 5-HT3 (serotonin 3 receptor) (Homo sapiens, UniProt P46098); assay: SafetyScreen44: 5-HT3; format: binding
T6 construct: purchased Eurofins Cerep SafetyScreen44
T6 sequence (P46098 24-478): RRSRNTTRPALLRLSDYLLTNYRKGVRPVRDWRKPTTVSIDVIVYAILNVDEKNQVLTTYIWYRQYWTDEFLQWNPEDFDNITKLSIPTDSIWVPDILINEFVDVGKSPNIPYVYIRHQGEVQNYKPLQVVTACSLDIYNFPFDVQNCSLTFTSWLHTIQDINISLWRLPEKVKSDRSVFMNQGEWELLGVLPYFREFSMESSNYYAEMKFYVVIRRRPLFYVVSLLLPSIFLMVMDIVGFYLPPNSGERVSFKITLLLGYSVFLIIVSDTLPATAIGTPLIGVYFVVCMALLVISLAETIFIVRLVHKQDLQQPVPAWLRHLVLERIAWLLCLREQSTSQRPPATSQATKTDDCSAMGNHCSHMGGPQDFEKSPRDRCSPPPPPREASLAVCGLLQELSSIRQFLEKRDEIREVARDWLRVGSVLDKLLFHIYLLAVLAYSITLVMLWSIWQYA

[6] = target: T7, ETA (endothelin receptor subtype A) (Homo sapiens, UniProt P25101); assay: SafetyScreen44: ETA; format: binding
T7 construct: purchased Eurofins Cerep SafetyScreen44
T7 sequence (P25101 21-427): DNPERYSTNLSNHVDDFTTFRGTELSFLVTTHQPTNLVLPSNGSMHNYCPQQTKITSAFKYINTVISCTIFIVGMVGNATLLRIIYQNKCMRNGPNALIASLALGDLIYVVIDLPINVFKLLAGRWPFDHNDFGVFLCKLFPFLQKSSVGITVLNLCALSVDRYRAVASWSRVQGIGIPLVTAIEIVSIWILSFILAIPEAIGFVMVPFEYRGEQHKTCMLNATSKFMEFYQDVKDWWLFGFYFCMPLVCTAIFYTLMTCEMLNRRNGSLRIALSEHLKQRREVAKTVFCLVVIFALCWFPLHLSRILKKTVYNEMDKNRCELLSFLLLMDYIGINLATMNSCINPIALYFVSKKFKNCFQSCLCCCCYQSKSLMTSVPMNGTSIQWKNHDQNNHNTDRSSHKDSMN

5-HT transporter = target: T8, 5-HT transporter (Homo sapiens, UniProt P31645); assay: SafetyScreen44: 5-HT transporter; format: binding
T8 construct: purchased Eurofins Cerep SafetyScreen44
T8 sequence (P31645 whole entry): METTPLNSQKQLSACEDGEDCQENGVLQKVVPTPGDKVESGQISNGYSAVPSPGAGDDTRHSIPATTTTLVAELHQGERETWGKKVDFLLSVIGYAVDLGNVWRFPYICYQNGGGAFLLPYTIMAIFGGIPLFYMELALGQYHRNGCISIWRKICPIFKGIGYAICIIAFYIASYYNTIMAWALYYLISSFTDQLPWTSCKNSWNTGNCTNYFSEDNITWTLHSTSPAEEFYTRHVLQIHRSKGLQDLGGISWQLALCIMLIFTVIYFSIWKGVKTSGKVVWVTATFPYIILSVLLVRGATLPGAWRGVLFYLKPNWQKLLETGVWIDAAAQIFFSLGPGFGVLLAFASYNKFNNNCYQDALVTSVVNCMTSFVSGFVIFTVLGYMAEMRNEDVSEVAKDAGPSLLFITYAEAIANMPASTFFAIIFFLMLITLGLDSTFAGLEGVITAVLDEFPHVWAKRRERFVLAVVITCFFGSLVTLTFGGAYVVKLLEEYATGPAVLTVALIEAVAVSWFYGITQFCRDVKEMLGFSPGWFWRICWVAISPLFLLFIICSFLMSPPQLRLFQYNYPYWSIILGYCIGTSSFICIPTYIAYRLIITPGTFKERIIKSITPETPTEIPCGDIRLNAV

[7] = target: T9, MAO-A (monoamine oxidase A) (Rattus norvegicus, UniProt P21396); assay: SafetyScreen44: MAO-A; format: binding
T9 construct: purchased Eurofins Cerep SafetyScreen44
T9 sequence (P21396 1-526): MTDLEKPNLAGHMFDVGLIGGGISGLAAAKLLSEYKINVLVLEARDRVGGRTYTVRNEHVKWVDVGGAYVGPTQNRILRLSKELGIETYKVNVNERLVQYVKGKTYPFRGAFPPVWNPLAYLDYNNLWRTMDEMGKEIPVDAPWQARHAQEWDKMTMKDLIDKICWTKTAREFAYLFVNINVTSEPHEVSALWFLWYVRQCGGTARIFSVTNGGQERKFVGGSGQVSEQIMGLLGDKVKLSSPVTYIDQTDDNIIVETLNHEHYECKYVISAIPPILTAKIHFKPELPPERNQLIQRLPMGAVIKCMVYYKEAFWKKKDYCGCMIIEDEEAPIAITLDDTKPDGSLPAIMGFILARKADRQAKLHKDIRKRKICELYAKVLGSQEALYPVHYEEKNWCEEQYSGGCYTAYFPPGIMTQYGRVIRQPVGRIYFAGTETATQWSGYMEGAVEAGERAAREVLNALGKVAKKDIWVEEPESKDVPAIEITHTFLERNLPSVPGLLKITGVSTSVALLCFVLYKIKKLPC

CC(=O)NCCCC[C@@H]1NC(=O)[C@H](Cc2c[nH]c3c(C)cccc23)NC(=O)[C@H]([C@@H](C)O)NC(=O)[C@H](CC(N)=O)NC(=O)[C@@H](NC(C)=O)C(C)(C)SSC(C)(C)[C@@H](C(=O)N[C@@H](Cc2ccc(OCCN)cc2)C(=O)N[C@@H](Cc2ccc3ccccc3c2)C(=O)NC2(C(=O)N[C@@H](CCC(=O)O)C(=O)N[C@@H](CC(N)=O)C(=O)N[C@@H](Cc3cccnc3)C(=O)N(C)CC(N)=O)CCOCC2)NC1=O [JNJ-77242113, S^3,1,S^3,6-cyclo[N-acetyl-3-sulfanyl-L-valyl-L-asparaginyl-L-threonyl-7-methyl-L-tryptophyl-N^6-acetyl-L-lysyl-3-sulfanyl-L-valyl-O-(2-aminoethyl)-L-tyrosyl-3-(naphthalen-2-yl)-L-alanyl-4-aminooxan-4-carbonyl-L-α-glutamyl-L-asparaginyl-3-(pyridin-3-yl)-L-alanyl-N^2-methylglycinamide]]
inhibition at 10 µM ([1]; 1st run, read-out: Percent inhibition of control ligand binding, M1, 1st run): -4.1%
inhibition at 10 µM ([1]; 2nd run, read-out: Percent inhibition of control ligand binding, M1, 2nd run): 3.3%
inhibition at 10 µM ([1]; mean of 2 runs, read-out: Percent inhibition of control ligand binding, M1, Mean): -0.4%
inhibition at 10 µM ([2]; 1st run, read-out: Percent inhibition of control ligand binding, D2S, 1st run): -6.6%
inhibition at 10 µM ([2]; 2nd run, read-out: Percent inhibition of control ligand binding, D2S, 2nd run): -6.6%
inhibition at 10 µM ([2]; mean of 2 runs, read-out: Percent inhibition of control ligand binding, D2S, Mean): -6.6%
inhibition at 10 µM (COX1; 1st run, read-out: Percent inhibition of control ligand binding, COX1, 1st run): -18.8%
inhibition at 10 µM (COX1; 2nd run, read-out: Percent inhibition of control ligand binding, COX1, 2nd run): -37.6%
inhibition at 10 µM (COX1; mean of 2 runs, read-out: Percent inhibition of control ligand binding, COX1, Mean): -28.2%
inhibition at 10 µM ([3]; 1st run, read-out: Percent inhibition of control ligand binding, CB2, 1st run): -4.9%
inhibition at 10 µM ([3]; 2nd run, read-out: Percent inhibition of control ligand binding, CB2, 2nd run): -5.8%
inhibition at 10 µM ([3]; mean of 2 runs, read-out: Percent inhibition of control ligand binding, CB2, Mean): -5.4%
inhibition at 10 µM ([4]; 1st run, read-out: Percent inhibition of control ligand binding, PDE3A, 1st run): -30.6%
inhibition at 10 µM ([4]; 2nd run, read-out: Percent inhibition of control ligand binding, PDE3A, 2nd run): -44.7%
inhibition at 10 µM ([4]; mean of 2 runs, read-out: Percent inhibition of control ligand binding, PDE3A, Mean): -37.6%
inhibition at 10 µM ([5]; 1st run, read-out: Percent inhibition of control ligand binding, 5-HT3, 1st run): 0.7%
inhibition at 10 µM ([5]; 2nd run, read-out: Percent inhibition of control ligand binding, 5-HT3, 2nd run): 3.4%
inhibition at 10 µM ([5]; mean of 2 runs, read-out: Percent inhibition of control ligand binding, 5-HT3, Mean): 2.1%
inhibition at 10 µM ([6]; 1st run, read-out: Percent inhibition of control ligand binding, ETA, 1st run): -31.3%
inhibition at 10 µM ([6]; 2nd run, read-out: Percent inhibition of control ligand binding, ETA, 2nd run): -12.9%
inhibition at 10 µM ([6]; mean of 2 runs, read-out: Percent inhibition of control ligand binding, ETA, Mean): -22.1%
inhibition at 10 µM (5-HT transporter; 1st run, read-out: Percent inhibition of control ligand binding, 5-HT transporter, 1st run): -19.9%
inhibition at 10 µM (5-HT transporter; 2nd run, read-out: Percent inhibition of control ligand binding, 5-HT transporter, 2nd run): 1.4%
inhibition at 10 µM (5-HT transporter; mean of 2 runs, read-out: Percent inhibition of control ligand binding, 5-HT transporter, Mean): -9.2%
inhibition at 10 µM ([7]; 1st run, read-out: Percent inhibition of control ligand binding, MAO-A, 1st run): 12%
inhibition at 10 µM ([7]; 2nd run, read-out: Percent inhibition of control ligand binding, MAO-A, 2nd run): 10.3%
inhibition at 10 µM ([7]; mean of 2 runs, read-out: Percent inhibition of control ligand binding, MAO-A, Mean): 11.2%

Reference: article PMC11289455 (Scientific Reports, 2024)
